# Reference: PubChem BioAssay AID330 (DTP/NCI, 2004)
# Toxic doses and inconclusive results are not listed.
# System: P388 leukemia ip, CD2F1 mice, survival T/C
# Assay: NCI In Vivo Anticancer Drug Screen. Data for tumor model P388 Leukemia (intraperitoneal) in CD2F1 (CDF1) mice
# Conditions: endpoint: median survival time, higher = longer survival
# How it was run: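 Mice carrying the transplanted tumor received test compound or vehicle. Survival was recorded in each group, and the value is the treated-group measurement divided by that of the vehicle-treated control group.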
# [1] = dose: 50.0 mg/kg/injection, schedule: Q01DX005 (ip), vehicle: saline with Tween-80
# [2] = dose: 100.0 mg/kg/injection, schedule: Q01DX005 (ip), vehicle: saline with Tween-80
# [3] = dose: 200.0 mg/kg/injection, schedule: Q01DX005 (ip), vehicle: saline with Tween-80
structure (smiles),measurement,setting,value
O=C(O)/C=C\C(=O)Nc1ccccn1,T/C,"dose: 5.0 mg/kg/injection, schedule: Q01DX009 (ip), vehicle: saline with Tween-80",109 % of control
same,T/C,"dose: 5.0 mg/kg/injection, schedule: Q01DX009 (ip), vehicle: saline",100 % of control
same,T/C,"dose: 10.0 mg/kg/injection, schedule: Q01DX009 (ip), vehicle: saline with Tween-80",100 % of control
same,T/C,"dose: 10.0 mg/kg/injection, schedule: Q01DX009 (ip), vehicle: saline",105 % of control
same,T/C,"dose: 20.0 mg/kg/injection, schedule: Q01DX009 (ip), vehicle: saline with Tween-80",104 % of control
same,T/C,"dose: 30.0 mg/kg/injection, schedule: Q01DX009 (ip), vehicle: saline",105 % of control
same,T/C,"dose: 60.0 mg/kg/injection, schedule: Q01DX009 (ip), vehicle: saline",100 % of control
COP(=O)(CC(=O)OC(CC(=O)OCc1ccccc1)C(=O)OCc1ccccc1)OC (centres undefined),T/C,[1],98 % of control
same,T/C,[2],92 % of control
same,T/C,[3],93 % of control
C=Cc1c2ccccc2cc2ccccc12,T/C,"dose: 50.0 mg/kg/injection, schedule: Q01DX005 (ip), vehicle: Klucel (hydroxypropylcellulose) (HPC)",109 % of control
same,T/C,"dose: 100.0 mg/kg/injection, schedule: Q01DX005 (ip), vehicle: Klucel (hydroxypropylcellulose) (HPC)",106 % of control
same,T/C,"dose: 200.0 mg/kg/injection, schedule: Q01DX005 (ip), vehicle: Klucel (hydroxypropylcellulose) (HPC)",100 % of control
c1ccc(N2CCSCC2)cc1,T/C,"dose: 50.0 mg/kg/injection, schedule: Q04DX003 (ip), vehicle: saline",104 % of control
same,T/C,"dose: 66.0 mg/kg/injection, schedule: Q04DX003 (ip), vehicle: saline with Tween-80",150 % of control
same,T/C,"dose: 100.0 mg/kg/injection, schedule: Q04DX003 (ip), vehicle: saline with Tween-80",204 % of control
same,T/C,"dose: 150.0 mg/kg/injection, schedule: Q04DX003 (ip), vehicle: saline with Tween-80",190 % of control
same,T/C,"dose: 200.0 mg/kg/injection, schedule: Q04DX003 (ip), vehicle: saline",109 % of control
Cc1ccc2c(c1)NC(c1cccc(N=Cc3cc(Cl)cc(Cl)c3O)c1)c1cccn1-2 (centres undefined),T/C,"dose: 50.0 mg/kg/injection, schedule: Q01DX009 (ip), vehicle: saline with Tween-80",86 % of control
same,T/C,"dose: 100.0 mg/kg/injection, schedule: Q01DX009 (ip), vehicle: saline with Tween-80",91 % of control
same,T/C,"dose: 200.0 mg/kg/injection, schedule: Q01DX009 (ip), vehicle: saline with Tween-80",96 % of control
O=C1c2ccccc2C(=O)C1C(=Nc1ccccc1Br)c1ccccc1,T/C,[1],99 % of control
same,T/C,[2],103 % of control
same,T/C,[3],103 % of control
COc1cccc2c1C(=O)c1c(O)c3c(c(O)c1C2=O)CC(O)(C(=O)CBr)CC3OC(C)=O (centres undefined),T/C,"dose: 1.56 mg/kg/injection, schedule: Q01DX009 (ip), vehicle: other",109 % of control
same,T/C,"dose: 3.13 mg/kg/injection, schedule: Q01DX009 (ip), vehicle: other",103 % of control
same,T/C,"dose: 6.25 mg/kg/injection, schedule: Q01DX009 (ip), vehicle: other",105 % of control
same,T/C,"dose: 12.5 mg/kg/injection, schedule: Q01DX009 (ip), vehicle: other",113 % of control
same,T/C,"dose: 25.0 mg/kg/injection, schedule: Q01DX009 (ip), vehicle: other",109 % of control
CCC(c1ccc(OCCS(=O)(=O)Oc2ccc(C)cc2)cc1)C(CC)c1ccc(OCCS(=O)(=O)Oc2ccc(C)cc2)cc1 (centres undefined),T/C,"dose: 50.0 mg/kg/injection, schedule: Q01DX009 (ip), vehicle: saline",106 % of control
same,T/C,"dose: 100.0 mg/kg/injection, schedule: Q01DX009 (ip), vehicle: saline",87 % of control
same,T/C,"dose: 200.0 mg/kg/injection, schedule: Q01DX009 (ip), vehicle: saline",95 % of control
CCCCCCCCCCCCCCCCC1=C(C(=O)OC)NC(N)=NC1O (centres undefined),T/C,"dose: 7.5 mg/kg/injection, schedule: Q01DX005 (ip), vehicle: saline with Tween-80",103 % of control
same,T/C,"dose: 15.0 mg/kg/injection, schedule: Q01DX005 (ip), vehicle: saline with Tween-80",100 % of control
same,T/C,"dose: 30.0 mg/kg/injection, schedule: Q01DX005 (ip), vehicle: saline with Tween-80",102 % of control
same,T/C,"dose: 60.0 mg/kg/injection, schedule: Q01DX005 (ip), vehicle: saline with Tween-80",103 % of control
same,T/C,"dose: 120.0 mg/kg/injection, schedule: Q01DX005 (ip), vehicle: saline with Tween-80",103 % of control
same,T/C,"dose: 600.0 mg/kg/injection, schedule: Q01DX005 (ip), vehicle: saline with Tween-80",106 % of control
O=C(Cc1ccccc1)OCC1=CCN2CC[C@@H](O)[C@@H]12,T/C,"dose: 15.0 mg/kg/injection, schedule: Q01DX009 (ip), vehicle: saline + alcohol",97 % of control
same,T/C,"dose: 30.0 mg/kg/injection, schedule: Q01DX009 (ip), vehicle: saline + alcohol",99 % of control
same,T/C,"dose: 60.0 mg/kg/injection, schedule: Q01DX009 (ip), vehicle: saline + alcohol",97 % of control
same,T/C,"dose: 120.0 mg/kg/injection, schedule: Q01DX009 (ip), vehicle: saline + alcohol",109 % of control
same,T/C,"dose: 240.0 mg/kg/injection, schedule: Q01DX009 (ip), vehicle: saline + alcohol",105 % of control
same,T/C,"dose: 480.0 mg/kg/injection, schedule: Q01DX009 (ip), vehicle: saline + alcohol",116 % of control
